Measured values reported in patent US12628857B2, “Compositions comprising human milk oligosaccharides for use in a subject to support night sleep duration” (SOCIETE DES PRODUITS NESTLE S.A., priority 2020, dated 2026).

Columns and labels:
breast-fed children [1] = assay: Correlation of breast milk HMO levels with sleep duration (BISQ), BCP-Enriched cohort; type: in vivo, human; conditions: FIG. 1
Excerpt: (§1) The “BISQ” questionnaire is the brief infant sleep questionnaire, this questionnaire has been developed to screen sleep problems in infants and young children. This questionnaire has also been commonly used in sleep research to quantify quantity and quality of sleep as well as sleep maturation (Sadeh A. “Sleep assessment method” Monographs Soc Res Child Dev 80(1) 2015).
(§2) In the framework of the BISQ questionnaire one or more parameters are observed and recorded that are selected in the group consisting of: nocturnal sleep duration (between the hours of 7 pm and 7 am); daytime sleep duration (between the hours of 7 am and 7 pm); number of night awaking; duration of wakefulness during the night hours (10 pm to 6 am); nocturnal sleep-onset time (the clock time at which the child falls asleep for the night); settling time (latency to falling asleep for the night); method of falling asleep; location of sleep; and preferred body position. […]
A subset of typically developing children (n=92) enrolled in the BCP cohort aged between 0-20 months who were breast-fed at the time of visit were included in this study. […] The collected BMs were analyzed for HMOs, including 2′-Fucosyllactose (2FL), 3′-Fucosyllactose (3FL), 3′-Sialyllactose (3SL), 6′-Sialyllactose (6SL), Lacto-N-tetraose (LNT), Lacto-N-neotetraose (LNnT), Lacto-N-fucopentaose I (LNFP1), and A-Tetrasaccharide. […]

breast-fed children [2] = assay: Association of breast milk HMO levels with BISQ sleep parameters, LIFE Child cohort; type: in vivo, human; conditions: 3 months of age
Excerpt: as §1, §2
A subset of typically developing children enrolled in the LIFE Child cohort aged between 0-12 months who were breast-fed at the time of visit were included in this study. and consists of breast milk samples—collected in mothers at 3, 6 and 12 months after child's birth—and questionnaires—collected during pregnancy and the first year of the child's life—containing information about children sleep and some related confounding factors. the analysis was conducted on 153 subjects at 3 months, 113 subjects at 6 months and 27 subjects at 12 months. The collected BMs were analyzed for HMOs, including 2′-Fucosyllactose (2FL), 3′-Fucosyllactose (3FL), 3′-Sialyllactose (3SL), 6′-Sialyllactose (6SL), Lacto-N-tetraose (LNT), Lacto-N-neotetraose (LNnT), Lacto-N-fucopentaose I (LNFP1), and A-Tetrasaccharide. The association between sleep parameters generated using the BISQ and breast milk HMO levels were evaluated using logistic regression models. […] Both LNT and total core-HMO correlated with total night sleep time assessed by the BISQ (p<0.05, FIGS. 3 and 4 respectively).

SMILES	Correlation of total night-time sleep time with breast milk levels (breast-fed children [1]; BCP-Enriched, n=92, infant aged more than 11 months, p=0.05)	Correlation of total night time sleep with breast milk levels (breast-fed children [1]; BCP-enriched cohort, age >10 months, p<0.05)	Correlation of total night time sleep with breast milk levels (breast-fed children [2]; BISQ, p<0.05, FIGS. 3 and 4)	Dependence of the night sleep association on the method to go to sleep (need of rocking) (breast-fed children [2]; FIG. 3)	Correlation of total sleep time with breast milk levels (breast-fed children [2]; p<0.05, FIG. 2)
CC(=O)N[C@H]1[C@H]([C@H](O)[C@H](O)CO)O[C@@](O[C@H]2[C@@H](O)[C@@H](CO)O[C@@H](O[C@H]3[C@H](O)[C@@H](O)C(O)O[C@@H]3CO)[C@@H]2O)(C(=O)O)C[C@@H]1O (stereo partly drawn) [3SL, (6R)-5-Acetamido-3,5-dideoxy-6-[(1R,2R)-1,2,3-trihydroxypropyl]-β-L-threo-hex-2-ulopyranonosyl-(2→3)-β-D-galactopyranosyl-(1→4)-D-glucopyranose]	correlate positively	significantly correlated			
CC(=O)N[C@H]1[C@H](O[C@H]2[C@@H](O)[C@@H](CO)O[C@@H](O[C@H]3[C@H](O)[C@@H](O)C(O)O[C@@H]3CO)[C@@H]2O)O[C@H](CO)[C@@H](O)[C@@H]1O[C@@H]1O[C@H](CO)[C@H](O)[C@H](O)[C@H]1O (some centres unmarked) [LNT, Lacto-N-tetraose]			significantly correlated	independent of the method to go to sleep	significantly correlated
